The target in the assay is human PD-L1 / Human PD-1 (Homo sapiens (Human), UniProt Q9NZQ7). In words: Enzyme-Linked Immunosorbent Assay (ELISA), PD-1/PD-L1 binding. Conditions: plate-coated human PD-L1, biotinylated human PD-1. The protocol: Biological Example: Enzyme-Linked Immunosorbent Assay—ELISA
human PD-L1 / Human PD-1, sequence (Q9NZQ7 19-239): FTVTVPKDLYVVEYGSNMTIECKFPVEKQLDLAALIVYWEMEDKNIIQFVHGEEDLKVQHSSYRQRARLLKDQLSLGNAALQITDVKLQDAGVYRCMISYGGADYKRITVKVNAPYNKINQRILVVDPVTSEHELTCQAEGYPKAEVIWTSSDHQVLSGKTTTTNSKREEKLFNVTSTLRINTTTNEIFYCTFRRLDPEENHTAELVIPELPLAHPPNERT
96 Well plates were coated with […] of human PD-L1 (obtained from R&D) in PBS overnight at 4° C. The wells were then blocked with 2% BSA in PBS (W/V) with 0.05% TWEEN-20 for 1 hour at 37° C. The plates were washed 3 times with PBS/0.05% TWEEN-20 and the compounds were serial diluted (1:5) in dilution medium and added to the ELISA plates. Human PD-1 and biotin 0.3 μg/mL (ACRO Biosystems) were added and incubated for 1 hour at 37° C. then washed 3 times with PBS/0.05% TWEEN-20. A second block was performed with 2% BSA in PBS (W/V)/0.05% TWEEN-20 for 10 min at 37° C. and was washed 3 times with PBS/0.05% TWEEN-20. Streptavidin-HRP was added for 1 hour at 37° C. then washed 3 times with PBS/0.05% TWEEN-20. TMB substrate was added and reacted for 20 min at 37° C. A stop solution (2 N aqueous H2SO4) was added. The absorbance was read at 450 nm using a micro-plate spectrophotometer.
A general note: An ELISA detects its analyte on a solid surface through an enzyme-linked reagent.
In general, IC50 refers to the midpoint of a concentration-inhibition curve. A low value points to inhibition by little substance. Turning to `C[C@@](CO)(NCc1cc(Cl)c(O[C@H]2CCc3c(-c4cccc(OCCCN5CCC(O)CC5)c4F)cccc32)cc1OCc1cncc(C#N)c1)C(=O)O`, the IC50 was < 5 nM.

Consider `CCOc1cc(O[C@H]2CCc3c(-c4cccc(OCCCN5CCC(O)CC5)c4C)cccc32)c(Cl)cc1CN[C@@H](CO)C(=O)O`, for which the IC50 is < 5 nM.

As to `CCOc1cc(O[C@H]2CCc3c(-c4cccc(OCCCN5CCC(O)CC5)c4C)cccc32)c(Cl)cc1CN[C@H](C(=O)O)[C@@H](C)O`, the IC50 is < 5 nM.

On to `CCOc1cc(O[C@H]2CCc3c(-c4cccc(OCCCN5CC[C@@H](O)C5)c4C)cccc32)c(Cl)cc1CN[C@@H](CO)C(=O)O`, for which the IC50 is < 5 nM.

With `CCOc1cc(O[C@H]2CCc3c(-c4cccc(OCCCN5CC[C@@H](O)C5)c4C)cccc32)c(Cl)cc1CN[C@H](C(=O)O)[C@@H](C)O`, the IC50 was < 5 nM.

Regarding `Cc1c(OCCCN2CCC(O)(C(=O)O)CC2)cccc1-c1cccc2c1CC[C@@H]2Oc1cc(OCc2cncc(C#N)c2)c(CN[C@H](C(=O)O)[C@@H](C)O)cc1Cl`, the half-inhibitory concentration (IC50) is < 5 nM.

Turning to `CC(CO)(CO)NCc1cc(Cl)c(O[C@H]2CCc3c(-c4cccc(OCCCN5CCNC(=O)C5)c4Cl)cccc32)cc1OCc1cncc(C#N)c1`, the IC50 is < 5 nM.

Consider `N#Cc1cncc(COc2cc(O[C@H]3CCc4c(-c5cccc(OCCCN6CCNC(=O)C6)c5Cl)cccc43)c(Cl)cc2CNC2(C(=O)O)CCC2)c1`, for which the IC50 was < 5 nM.

On to `N#Cc1cncc(COc2cc(O[C@H]3CCc4c(-c5cccc(OCCCN6CC7(CC(F)C7)C6)c5Cl)cccc43)c(Cl)cc2CN[C@@H]2CCCC[C@@H]2O)c1`, for which the IC50 was < 5 nM.

As for `N#Cc1cncc(COc2cc(O[C@H]3CCc4c(-c5cccc(OCCCN6CC7(C6)CC(F)(F)C7)c5Cl)cccc43)c(Cl)cc2CN[C@@H]2CCCC[C@@H]2O)c1`, the IC50 was < 5 nM.

As to `Cc1c(OCCCNCC(C)(C)O)cccc1-c1cccc2c1CC[C@@H]2Oc1cc(OCc2cncc(C#N)c2)c(CNCC2CCC(=O)N2)cc1Cl` (stereo partly shown), the IC50 is < 5 nM.

Compound `N#Cc1cc(C#N)cc(COc2cc(O[C@@H]3c4cccc(-c5cccc(OCCCN6CC(O)C6)c5Cl)c4C[C@@H]3F)c(Cl)cc2CNC[C@@H]2CCC(=O)N2)c1` gave a concentration for half-maximal inhibition (IC50) of 5 to 500 nM.

As to `N#Cc1cncc(COc2cc(O[C@H]3CCc4c(-c5cccc(OCCCN6CCC(F)CC6)c5C(F)(F)F)cccc43)c(Cl)cc2CNCC2CCC(=O)N2)c1` (stereo partly shown), the IC50 was 5 to 500 nM.

As for `CC(C)(O)[C@H](NCc1cc(Cl)c(O[C@H]2CCc3c(-c4cccc(OCCCN5CCC(F)CC5)c4Cl)cccc32)cc1OCc1cncc(C#N)c1)C(=O)O`, the IC50 is < 5 nM.

On to `N#Cc1cncc(COc2cc(O[C@H]3CCc4c(-c5cccc(OCCCN6CCC(F)CC6)c5Cl)cccc43)c(Cl)cc2CN2CCCC3(C2)NC(=O)NC3=O)c1` (stereo partly shown), for which the IC50 was in the range of 5 to 500 nM.

Compound `CCOc1cc(O[C@H]2CCc3c(-c4cccc(OCCCN5CCC(F)CC5)c4Cl)cccc32)c(Cl)cc1CN[C@@H]1CCCC[C@@H]1O` displayed an IC50 of 5 to 500 nM.

In turn, `CCOc1cc(O[C@H]2CCc3c(-c4cccc(OCCCN5CCC(F)CC5)c4Cl)cccc32)c(Cl)cc1CNCC1CCC(=O)N1` (stereo partly shown) registered an IC50 of 5 to 500 nM.

The compound `N#Cc1cncc(COc2cc(O[C@H]3CCc4c(-c5cccc(OCCCN6CCC(F)CC6)c5C#N)cccc43)c(Cl)cc2CNCC2CCC(=O)N2)c1` (stereo partly shown) showed an IC50 of 5 to 500 nM.

Take `CC(C)OC(=O)[C@](C)(CO)NCc1cc(Cl)c(O[C@H]2CCc3c(-c4cccc(OCCCN5CC(O)C5)c4Cl)cccc32)cc1OCc1cncc(C#N)c1`: the IC50 is < 5 nM.

Consider `Cc1c(OCCCN2CC(F)C2)cccc1-c1cccc2c1CC[C@@H]2Oc1cc(OCc2cncc(C#N)c2)c(CNCC2CCC(=O)N2)cc1Cl` (stereo partly shown), for which the half-inhibitory concentration (IC50) was < 5 nM.

Consider `N#Cc1cc(C#N)cc(COc2cc(O[C@@H]3c4cccc(-c5cccc(OCCCN6CC(O)C6)c5Cl)c4C[C@@H]3F)c(Cl)cc2CNC[C@H]2CCC(=O)N2)c1`, for which the IC50 was < 5 nM.

As for `C[C@@](CO)(NCc1cc(Cl)c(O[C@@H]2c3cccc(-c4cccc(OCCCN5CC(O)C5)c4Cl)c3C[C@@H]2F)cc1OCc1cc(C#N)cc(C#N)c1)C(=O)O`, the half-inhibitory concentration (IC50) is < 5 nM.

Compound `N#Cc1cncc(COc2cc(O[C@H]3CCc4c(-c5cccc(OCCCN6CC(O)C6)c5C(F)(F)F)cccc43)c(Cl)cc2CNCC2CCC(=O)N2)c1` (stereo partly shown) yielded a half-inhibitory concentration (IC50) of 5 to 500 nM.

Compound `Cc1c(OCCCN2CC3(CC(F)C3)C2)cccc1-c1cccc2c1CC[C@@H]2Oc1cc(OCc2cncc(C#N)c2)c(CNCC2CCC(=O)N2)cc1Cl` (stereo partly shown) came in with an IC50 of 5 to 500 nM.

Compound `CCOc1cc(O[C@H]2CCc3c(-c4cccc(OCCCN5CC(O)C5)c4Cl)cccc32)c(Cl)cc1CN[C@@H]1CCCC[C@@H]1O` registered an IC50 of 5 to 500 nM.

In turn, `CCOc1cc(O[C@H]2CCc3c(-c4cccc(OCCCN5CC(O)C5)c4Cl)cccc32)c(Cl)cc1CNCC1CCC(=O)N1` (stereo partly shown) had an IC50 of 5 to 500 nM.

`N#Cc1cncc(COc2cc(O[C@H]3CCc4c(-c5cccc(OCCCN6CC(F)(F)C6)c5Cl)cccc43)c(Cl)cc2CN[C@@H]2CCCC[C@@H]2O)c1` yielded an IC50 of 5 to 500 nM.

On to `N#Cc1cncc(COc2cc(O[C@H]3CCc4c(-c5cccc(OCCCN6CC[C@@H](F)C6)c5Cl)cccc43)c(Cl)cc2CN[C@@H]2CCCC[C@@H]2O)c1`, for which the half-inhibitory concentration (IC50) was < 5 nM.

`N#Cc1cncc(COc2cc(O[C@H]3CCc4c(-c5cccc(OCCCN6CCC(F)CC6)c5Cl)cccc43)c(Cl)cc2CN[C@@H]2CCCC[C@@H]2O)c1`: the half-maximal inhibitory concentration (IC50) was < 5 nM.

As for `N#Cc1cncc(COc2cc(O[C@H]3CCc4c(-c5cccc(OCCCN6CC[C@H](F)C6)c5Cl)cccc43)c(Cl)cc2CN[C@@H]2CCCC[C@@H]2O)c1`, the concentration for half-maximal inhibition (IC50) is < 5 nM.

As to `N#Cc1cc(C#N)cc(COc2cc(O[C@@H]3c4cccc(-c5cccc(OCCCN6CCC(F)CC6)c5Cl)c4C[C@H]3F)c(Cl)cc2CNC[C@H]2CCC(=O)N2)c1`, the half-inhibitory concentration (IC50) lay in the range of 5 to 500 nM.

In the case of `N#Cc1cc(C#N)cc(COc2cc(O[C@@H]3c4cccc(-c5cccc(OCCCN6CC(F)C6)c5Cl)c4C[C@H]3F)c(Cl)cc2CNC[C@H]2CCC(=O)N2)c1`, the 50% inhibitory concentration (IC50) was 5 to 500 nM.

Turning to `CCOc1cc(O[C@H]2CCc3c(-c4cccc(OCCCN5CCC(F)CC5)c4Cl)cccc32)c(Cl)cc1CNC(C)(CO)CO`, the concentration for half-maximal inhibition (IC50) lay in the range of 5 to 500 nM.

In turn, `CCOc1cc(O[C@@H]2c3cccc(-c4cccc(OCCCN5CCC(F)CC5)c4Cl)c3C[C@@H]2F)c(Cl)cc1CNC[C@H]1CCC(=O)N1` came in with a half-inhibitory concentration (IC50) of 5 to 500 nM.

For the compound `CCOc1cc(O[C@@H]2c3cccc(-c4cccc(OCCCN5CCC(F)CC5)c4Cl)c3C[C@@H]2F)c(Cl)cc1CN[C@@H]1CCCC[C@@H]1O`, the IC50 lay in the range of 5 to 500 nM.

For the compound `CC1(O)CN(CCCOc2cccc(-c3cccc4c3CC[C@@H]4Oc3cc(OCc4cncc(C#N)c4)c(CN[C@@](C)(CO)C(=O)O)cc3Cl)c2Cl)C1`, the concentration for half-maximal inhibition (IC50) is < 5 nM.

`CCOc1cc(O[C@@H]2c3cccc(-c4cccc(OCCCN5CC(F)C5)c4Cl)c3C[C@@H]2F)c(Cl)cc1CN[C@@](C)(CO)C(=O)O` returned an IC50 of 5 to 500 nM.

Consider `CCOC(=O)[C@](C)(CO)NCc1cc(Cl)c(O[C@H]2CCc3c(-c4cccc(OCCCN5CC(O)C5)c4Cl)cccc32)cc1OCc1cncc(C#N)c1`, for which the 50% inhibitory concentration (IC50) was < 5 nM.

On to `CCOc1cc(O[C@@H]2c3cccc(-c4cccc(OCCCN5CC(O)C5)c4Cl)c3C[C@@H]2F)c(Cl)cc1CN[C@@](C)(CO)C(=O)O`, for which the IC50 lay within 5 to 500 nM.

`C[C@@](CO)(NCc1cc(Cl)c(O[C@@H]2c3cccc(-c4cccc(OCCCN5CC(O)C5)c4Cl)c3C[C@@H]2F)cc1OCc1cncc(C#N)c1)C(=O)O`: the IC50 was < 5 nM.

For `C[C@@](CO)(NCc1cc(Cl)c(O[C@@H]2c3cccc(-c4cccc(OCCCN5CC(F)C5)c4Cl)c3C[C@@H]2F)cc1OCc1cncc(C#N)c1)C(=O)O`, the concentration for half-maximal inhibition (IC50) was < 5 nM.

Consider `COc1cc(O[C@H]2CCc3c(-c4cccc(OCCCN5CCC(F)CC5)c4Cl)cccc32)c(Cl)cc1CN[C@@H]1CCCC[C@@H]1O`, for which the IC50 lay in the range of 5 to 500 nM.

With `CCOc1cc(O[C@H]2CCc3c(-c4cccc(OCCCN5CC(O)C5)c4Cl)cccc32)c(Cl)cc1CN[C@@](C)(CO)C(=O)O`, the concentration for half-maximal inhibition (IC50) was < 5 nM.

With `CC(CO)(NCc1cc(Cl)c(O[C@H]2CCc3c(-c4cccc(OCCCN5CC(O)C5)c4Cl)cccc32)cc1OCc1cccnc1)C(=O)O` (stereo partly shown), the IC50 is < 5 nM.

For `CC(CO)(NCc1cc(Cl)c(O[C@H]2CCc3c(-c4cccc(OCCCN5CCOCC5)c4Cl)cccc32)cc1OCc1cncc(C#N)c1)C(=O)O` (stereo partly shown), the IC50 is < 5 nM.

`CC(CO)(NCc1cc(Cl)c(O[C@H]2CCc3c(-c4cccc(OCCCN5CC(O)C5)c4Cl)cccc32)cc1OCc1cncc(Cl)c1)C(=O)O` (stereo partly shown): the concentration for half-maximal inhibition (IC50) was < 5 nM.

Take `CC(CO)(NCc1cc(Cl)c(O[C@H]2CCc3c(-c4cccc(OCCCN5CC(F)C5)c4Cl)cccc32)cc1OCc1cncc(C#N)c1)C(=O)O` (stereo partly shown): the IC50 is < 5 nM.

As for `C[C@@](CO)(NCc1cc(Cl)c(O[C@H]2CCc3c(-c4cccc(OCCCN5CC(O)C5)c4Cl)cc(F)cc32)cc1OCc1cncc(C#N)c1)C(=O)O`, the IC50 is < 5 nM.

For `CC(CO)(NCc1cc(Cl)c(O[C@H]2CCc3c(-c4cccc(OCCCN5CC6(CC(O)C6)C5)c4Cl)cccc32)cc1OCc1cncc(C#N)c1)C(=O)O` (stereo partly shown), the IC50 was < 5 nM.

Consider `CC(CO)(NCc1cc(Cl)c(O[C@H]2CCc3c(-c4cccc(OCCCN5CC6(CC(F)C6)C5)c4Cl)cccc32)cc1OCc1cncc(C#N)c1)C(=O)O` (stereo partly shown), for which the half-maximal inhibitory concentration (IC50) was < 5 nM.

In turn, `N#Cc1cncc(COc2cc(O[C@H]3CCc4c(-c5cccc(OCCCN6CC(O)C6)c5Cl)cccc43)c(Cl)cc2CN2CCC3(C2)NC(=O)NC3=O)c1` (stereo partly shown) registered a concentration for half-maximal inhibition (IC50) of 5 to 500 nM.

As to `N#Cc1cncc(COc2cc(O[C@H]3CCc4c(-c5cccc(OCCCN6CC(O)C6)c5Cl)cccc43)c(Cl)cc2CN[C@@H]2CCCC[C@@H]2O)c1`, the IC50 is < 5 nM.

Values taken from patent publication US10919852B2, “Immunomodulator compounds” (CHEMOCENTRYX, INC., priority 2017, dated 2021).
